# Entries after “also recorded” stand apart in the source; their conditions may differ.
# Experiments:
# [1] = tested on: peripheral blood lineages; set-up: species or system mice; details: mouse, in vivo
# From the text: Data are shown as a moving average with each point representing the mean of three consecutive […]. Error bars are +/− of the standard error of the mean for all data points associated with the moving average. The solid black bar in the lower left of each graph indicates the duration of the PD0332991 treatment. Data from PD0332991 treated mice is shown by the unshaded squares. For comparison, data from mice that had not been treated with PD0332991 is shown in shaded circles.
# For TBI experiments, mice were irradiated using a ^137Cs source (AECL Gammacell 40 Irradiator, Atomic Energy of Canada Ltd, Mississauga, Ontario, Canada). Delivered doses were at or near the empirically determined LD90 of 7.5 Gy, consistent with prior studies. See Na Nakorn et al., J. Clin. Invest., 109, 1579-1585 (2002); Herodin et al., Blood, 101, 2609-2616 (2003); Uckun et al., Blood, 75, 638-645 (1990); and Wang et al., Proc. Natl. Acad. Sci., USA, 94, 14590-14595 (1997). Peripheral blood was collected using a tail vein nick for complete blood cells (CBCs) and analyzed with a HemaTrue analyzer (Heska Co., Loveland, Colo., United States of America).
# These observations are consistent with the kinetics and degree of myelosuppression seen when tumor bearing mice (see Ramsey et al., Cancer Res., 67, 4732-4741 (2007); and Fry et al., Mol. Cancer Ther., 3, 1427-1438 (2004)) and human patients with malignancies (see O'Dwyer et al., “A Phase I does escalation trial of a daily oral CDK4/6 Inhibitor PD 0332991” in American Society of Clinical Oncology (ASCO, Chicago, Ill., 2007)) are serially treated with PD0332991. The noted decreases might be expected to enhance the adverse effects of radiation therapy. However, unexpectedly as shown herein, hematopoietic cells are protected from adverse effects.
# [2] = tested on: TyrRAS+Ink4a/Arf−/− melanoma; assay: Tumor growth in Tyr-RAS+Ink4a/Arf−/− melanoma GEMM under daily treatment; format: in vivo, mice
# From the text: Animals: All mice were housed in accord with the University of North Carolina at Chapel Hill (UNC-CH) Institutional Animal Care and Use Committee. Young adult (6-12 weeks of age), virgin female C57B1/6 mice were purchased from Jackson Labs (Bar Harbor, Me., United States of America). C3H mice were obtained from Harlan Sprague-Dawley Inc. (Indianapolis, Ind., United States of America). Experiments on tumor-bearing TyrRAS+Ink4a/Arf−/− mice (see Chin et al., Genes & development, 11, 2822-2834 (1997)) were performed in animals fully backcrossed (N>10) to the FVB/n background. Mice were treated as previously described (see Ramsey et al., Cancer Res., 67, 4732-4741 (2007)) with PD 0332991 obtained from Pfizer Inc., (New York, N.Y., United States of America) given by oral gavage at a dose of 150 mg/kg body weight. TyrRAS+Ink4a/Arf−/− mice were serially observed until tumor development. When tumors were about 0.2 cm^2 in size, daily PD 0332991 treatment was begun. The data shown in FIGS. 2B and 2D were normalized to tumor size at the time of therapy initiation. Tumor-bearing mice were euthanized at the indicated times for morbidity, tumor ulceration, or tumor size >1.5 cm in diameter.
# See Walker et al., Genes Chromosomes Cancer, 22, 157-163 (1998); and Daniotti et al., Oncogene, 23, 5968-5977 (2004). […]
# [3] = tested on: TyrRAS+Ink4a/Arf−/− melanoma; assay: Tumor-bearing mice given 7.5 Gy TBI: tumor growth and mortality; format: in vivo
# Description: Tumor growth with (open squares) or without (closed diamonds) a single dose of 6-acetyl-8-cyclopentyl-5-methyl-2-(5-piperazin-1-yl-pyridin-2-ylamino)-8H-pyrido-[2,3-d]-pyrimidin-7-one (PD0332991) administered 4 hours prior to 7.5 gray (Gy) total body irradiation (TBI). […] Error bars indicate standard error of the mean.
# FIG. 2E is a set of Kaplan-Meyer survival curves showing overall mortality, tumor-specific mortality and mortality to radiation toxicity of tumor bearing mice treated with 7.5 gray (Gy) of total body irradiation (TBI) with (solid line, n=8) or without (dashed line n=11) 6-acetyl-8-cyclopentyl-5-methyl-2-(5-piperazin-1-yl-pyridin-2-ylamino)-8H-pyrido-[2,3-d]-pyrimidin-7-one (PD 0332991) treatment 4 hours prior to ionizing radiation (IR). P-values calculated using the log-rank test.
# Young adult (6-12 weeks of age), virgin female C57B1/6 mice were purchased from Jackson Labs (Bar Harbor, Me., United States of America). […] Experiments on tumor-bearing TyrRAS+Ink4a/Arf−/− mice (see Chin et al., Genes & development, 11, 2822-2834 (1997)) were performed in animals fully backcrossed (N>10) to the FVB/n background. Mice were treated as previously described (see Ramsey et al., Cancer Res., 67, 4732-4741 (2007)) with PD 0332991 obtained from Pfizer Inc., (New York, N.Y., United States of America) given by oral gavage at a dose of 150 mg/kg body weight. TyrRAS+Ink4a/Arf−/− mice were serially observed until tumor development. When tumors were about 0.2 cm^2 in size, daily PD 0332991 treatment was begun. […] Tumor-bearing mice were euthanized at the indicated times for morbidity, tumor ulceration, or tumor size >1.5 cm in diameter.
# [4] = treatment 4 hours prior to 7.5 Gy TBI
smiles,measurement,setting,value
"CC(=O)c1c(C)c2cnc(Nc3ccc(N4CCNCC4)cn3)nc2n(C2CCCC2)c1=O [PD0332991, 6-acetyl-8-cyclopentyl-5-methyl-2-(5-piperazin-1-yl-pyridin-2-ylamino)-8H-pyrido-[2,3-d]-pyrimidin-7-one]",time to begin of improvement upon cessation,[1],≤ 4 days
same,treatment time after which decrease became apparent,[1],8 days
same,"erythroid, platelet and myeloid lineages","[1]; po, 150 mg/kg",modest decrease
same,mice that developed new tumors while receiving treatment,"[2]; 150 mg/kg daily, in the 8-16 days",two of five
same,growth of established tumors,"[2]; 150 mg/kg oral gavage daily, tumor-bearing Tyr-RAS+Ink4a/Arf−/− mice",no regression or decrease in tumor growth; also recorded: insensitive
same,anti-tumor effect of therapeutic IR,[3]; single dose 4 hours prior to 7.5 Gy TBI,does not decrease that anti-tumor effect of therapeutic radiotherapy
same,mortality to radiation toxicity,[3]; [4],does appear to provide protection from radiation toxicity
same,tumor-related mortality,[3]; [4],does not appear to increase tumor-related mortality

# — US20110224221A1, “HEMATOPOIETIC PROTECTION AGAINST IONIZING RADIATION USING SELECTIVE CYCLIN-DEPENDENT KINASE 4/6 INHIBITORS” (priority 2008, published 2011)
